Values of other authors, collected in patent US20240325432A1, “COMPOSITION AND METHODS OF TREATMENT USING TRANSDERMAL SUPPLEMENTATION” (Xygenyx Inc., priority 2023, published 2024).

How the values were obtained:
[1] = as penetration enhancer
[2] = test system: wide dynamic range neurons in the ventroposterolateral nucleus of the thalamus; settings: believed
F2-isoprostane = settings: 1600-3200 IU/day
[3] = compared to α-tocopherol = 1.0
rheumatoid arthritis = settings: arthritic subjects
[4] = even when dietary intake occurs in equal portions
[5] = test system: markers of inflammation in the blood; settings: individuals with metabolic syndrome
[6] = in vivo

CC(C)[C@@H]1CC[C@@H](C)C[C@H]1O [Menthol]
increase of transdermal drug uptake (factor) [1]: ≥ 10

CCCCCc1cc(O)c2c(c1)OC(C)(C)C1CCC(C)=CC21 (stereo not drawn) [THC, Δ-9-tetrahydrocannabinol]
analgesic power relative to morphine [2]: ten times more powerful than morphine

CC12CCC(CC1)C(C)(C)O2 [eucalyptol, 1,8-epoxy-p-menthane]
increase of transdermal drug uptake (factor) [1]: more than 10

Cc1c(C)c2c(c(C)c1O)CC[C@@](C)(CCC[C@H](C)CCC[C@H](C)CCCC(C)C)O2 [α-tocopherol]
blood plasma concentration of F2-isoprostane (F2-isoprostane): significantly lower | reduction in the development of age-related cataracts (400-500 IU in combination with 10-20 mg β-carotene and 400-500 mg vitamin C): 23% | reduction of risk of coronary disease (dietary supplementation, doses up to 400 IU/day): up to 34% | reduction of risk of developing neurodegenerative diseases (Alzheimer's Syndrome or dementia) (dietary supplementation, doses up to 400 IU/day, controlled trials): ≤ 24% | relative biological activity [3]: 1.0

C=C1CC/C=C(\C)CC[C@@H]2[C@@H]1CC2(C)C [β-caryophyllene]
swelling of joints and lymph nodes (rheumatoid arthritis): reduced swelling of joints and lymph nodes

Cc1cc(O)c(C)c2c1O[C@](C)(CCC[C@H](C)CCC[C@H](C)CCCC(C)C)CC2 [β-tocopherol]
relative biological activity [3]: 0.5

Cc1c(O)cc2c(c1C)O[C@](C)(CCC[C@H](C)CCC[C@H](C)CCCC(C)C)CC2 [γ-tocopherol]
relative biological activity [3]: 0.1 | concentration in vivo relative to α-tocopherol [4]: roughly 10%

Cc1cc(O)cc2c1O[C@](C)(CCC[C@H](C)CCC[C@H](C)CCCC(C)C)CC2 [δ-tocopherol]
relative biological activity [3]: 0.03 | markers of inflammation in the blood [5]: reduced markers of inflammation

HGH: hormone comprising a peptide chain that is synthesized in the pituitary gland
biological half-life [6]: 10-20 minutes
